From patent US9757408B2 (Hayashibara Co., Ltd., priority 2010, dated 2017)
Marks after values point to notes of the source that are not given here.

Columns and labels:
KK-Ay mice = KK-Ay mice kidney inflammation: body weight, kidney ratio, blood glucose, HbA1c, renal glomerulus consolidation (Experiment 14); type: in vivo; settings: 10 weeks; for Percentage of subject with renal glomerulus solidification (++): (++) = at least 50% consolidation; for Blood glucose level: fasted 16 hours
Description: Fifty KK-Ay mice, 5-week-old, male, commercialized by Japan Crea Co., Tokyo, Japan, were preliminary bred for one week on CE-2 feed commercialized by Japan Crea Co., Tokyo, Japan, measured for body weight and blood glucose level in blood samples collected from their tail veins, and randomly grouped into five groups, ten heads each, after balancing each measured value. One of the five groups was made into a control group and the mice of the group were allowed to take water freely and bred for 10 weeks (Experiment group 1). […] Throughout the periods of preliminary breeding and testing, the mice were bred while freely allowing them to take CE-2 feed at 22±2° C. under a light-dark cycle of 12 hours (lighting: from 7:00 to 19:00). At the termination of the test, the mice were evaluated based on their body weight, weight ratio of kidney, blood glucose level, hemoglobin A1c (HbA1c), and pathological findings of renal disorder by autopsy, and the percentage of mice with at least 50% consolidation (++) of renal glomerulus against the total glomus is shown in Table 15. The weight ratio of kidney was determined by dividing the weight of kidney by the body weight. The blood glucose level, HbA1c, and denatured score of renal glomerulus were determined by the following method.
At the termination of the test, the mice were fasted for 16 hours prior to autopsy and collected blood from their postcava for measurement of fasting glucose level. The blood glucose level was determined by “GLUCOSE CII-TEST WAKO”, a product name of a commercialized reagent for blood glucose level commercialized by Wako Pure Chemical Industries Ltd., Tokyo, Japan.
At the termination of the test, the mice were fasted for 16 hours before autopsy and collected blood from their postcava for measurement of interdigestive HbA1c level. The measurement was asked FALCO biosystems Ltd., Kyoto, Japan, a privately-owned clinical inspection institute.
At the autopsy, each mouse was collected his kidney which was then fixed with neutral buffered formalin, prepared into a pathologic tissue section in usual manner, and stained with hematoxylin-eosin staining (H-E staining) and PAS staining. For the stained pathologic tissue section of each mouse, they were compared with that of the control and the pathological findings by microscopic observation were judged based on the following criteria and scored for an index of the denaturation of renal disorder.
The degree of renal disorder was judged based on the degree of consolidation of renal glomerulus: The degree was judged based on the four grades; (++), meaning that at least 50% consolidation of renal glomerulus is observed against the total glomus; (+), meaning that at least 25% but below 50% consolidation of renal glomerulus is observed against the total glomus; (±), meaning that less than 25% consolidation of renal glomerulus is observed against the total glomus; and (−), meaning that no consolidation of renal glomerulus is observed against the total glomus. The pathological findings of kidney was judged based on an evaluation criterion for pathologic tissue (see, for example, the lines 12 to 21 at page 862 of “American Journal of Pathology”, Vol. 160, No. 3, pp. 861-867, 2002, by Andrea Hartner et al.).

[1] = system: IL-5 production of spleen cells; assay: IL-5 production of spleen cells stimulated with anti-CD3 antibody, from gel-treated mice (Experiment 16); type: in vivo, NC/Nga mice; settings: for production level of IL-5 of spleen cells stimulated with the anti-CD3 antibody: compared to mice applied with gel prepared by adding refined water (Experiment group 1); for Content of IL-5: supernatant of spleen cells stimulated with anti-CD3 antibody, picryl chloride-sensitized mice applied with gel
Method: (§1) On Friday of the 6th week of the induction (46th day after initiating the application), all the mice were sacrificed, followed by isolating their spleens and collecting spleen cells in usual manner. […] To each well 2 μg/mL of “Purified Mouse CD3ε Monoclonal Antibody”, a product name of an anti-CD3 antibody, commercialized by Cosmo Bio Co., Ltd., Tokyo, Japan, was added, and the cells were incubated at 37° C. for three days in a 5% v/v CO2 incubator, followed by assaying the levels of cytokines in each supernatant thereof.
(§2) The results are in Table 19 in parallel.

[2] = system: IFN-γ production of spleen cells; assay: IFN-γ production of spleen cells stimulated with anti-CD3 antibody, from gel-treated mice (Experiment 16); type: in vivo, NC/Nga mice; settings: for production level of IFN-γ of spleen cells stimulated with the anti-CD3 antibody: compared to mice applied with gel prepared by adding refined water (Experiment group 1); for Content of IFN-γ: supernatant of spleen cells stimulated with anti-CD3 antibody, picryl chloride-sensitized mice applied with gel
Method: as §1, §2

[3] = system: IL-12 production from mouse intraperitoneal macrophages; assay: IC50 for IL-12 production from mouse macrophages, LPS + IFN-γ (Experiment 19); type: cell-based; settings: for IC50: Mus musculus, Macrophage, 20 h, read-out: IC50 Concentration IL-12
Description: (§3) After completion of the culture, the supernatant in each well was collected and assayed for cytokines and prostaglandin E2 (called “PGE2”, hereinafter) with ELISA.

[4] = system: PGE2 production from mouse intraperitoneal macrophages; assay: IC50 for PGE2 production from mouse macrophages, LPS + IFN-γ (Experiment 19); type: cell-based; settings: for IC50: Mus musculus, Macrophage, 20 h, read-out: IC50 Concentration PGE2
Description: as §3

NHEK cells = assay: Proliferation of NHEK cells irradiated with ultraviolet rays, fluorescent intensity (Experiment 17); type: cell-based, human; settings: stimulation by ultraviolet rays
Method: “CELLMATRIX TYPE IV”, a product name of collagen for tissue culture commercialized by Nitta Gelatin Inc., Osaka, Japan, which had been diluted with PBS(K-) by 10 times, was previously placed in “FALCON 35-3001”, a product name of 35 mm petri dish commercialized by Becton Dickinson and Company, NJ, USA, in an amount of 1 mL/plate, and then allowed to stand at ambient temperature for 10 min, followed by removing an excessive amount of CELLMATRIX, drying the petri dish in air, and washing it thrice with PBS(K-). […] The cells were cultured at 37° C. in a 5% v/v CO2 incubator. On the 2nd and 4th days after the cell inoculation, the medium was replaced with EpiLife medium free of EDGS (1 mL/plate). On the 5th day after the cell inoculation, the supernatant was removed, and the petri dish was washed twice by adding 1 mL/petri dish of Hanks' balanced salt solution (called “HBSS (−) buffer”, hereinafter). Further, 2 mL/petri dish of HBSS (−) buffer was added to the petri dish which was then placed in the position 15 cm apart from an ultraviolet ray light source and irradiated with 40 mJ/cm^2 of ultraviolet B radiation. […] As an ultraviolet ray light source, “NS-8F”, a light source for actual use commercialized by Sanwa Medical Co., Ltd., Okayama, Japan, equipped with an ultraviolet B radiation lamp was used, and the radiation dose was measured on “UVR-305/365D (II)”, an ultraviolet ray meter commercialized by Topcon Corporation, Tokyo, Japan. TNF-α was assayed by the same method as in Experiment 2. The remaining other cytokines were assayed with an IL-1α assay kit, commercialized by R & D Systems Inc., MN, USA, and an IL-8 assay kit commercialized by BioLegend, CA, USA.

[5] = mouse intraperitoneal macrophages stimulated with LPS and IFN-γ

With `Nc1ncnc2c1ncn2[C@@H]1O[C@H](CO)[C@@H](O)[C@H]1O` [AN, adenosine] the HbA1c value (KK-Ay mice; 94 mg/kg body weight/day) was 6.72%, the “Percentage of subject with renal glomerulus solidification (++)” value (from here on “Percentage of subject”) (KK-Ay mice; 94 mg/kg body weight/day) was 100% and the Blood glucose level (KK-Ay mice; 94 mg/kg body weight/day) was 342 mg/dL. For the same compound, the “production level of IL-5 of spleen cells stimulated with the anti-CD3 antibody” value [1] was “showed no difference”, the “Content of IL-5” value [1] was 225 ng/mL and the “production level of IFN-γ of spleen cells stimulated with the anti-CD3 antibody” value [2] was “showed no difference”. The “Content of IFN-γ” value [2] was 12.1 pg/mL, the IC50 [3] was 14 µM and the IC50 [4] was greater than 200 µM. For the same compound, the Proliferation (NHEK cells; 1 μM) was 5701 Fluorescent intensity, the Proliferation (NHEK cells; 5 μM) was 5683 Fluorescent intensity and the Proliferation (NHEK cells; 10 μM) was 5578 Fluorescent intensity.

In the case of `Nc1c2ncn([C@@H]3O[C@H](CO)[C@@H](O)[C@H]3O)c2nc[n+]1[O-]` [ANO, adenosine N1-oxide], the HbA1c value (KK-Ay mice; 30 mg/kg body weight/day) is reported as 6.79%, the “Percentage of subject” value (KK-Ay mice; 30 mg/kg body weight/day) is reported as 50% and the Blood glucose level (KK-Ay mice; 30 mg/kg body weight/day) is reported as 304 mg/dL. The HbA1c value (KK-Ay mice; 100 mg/kg body weight/day, 100 mg/kg/day) was 5.40* %, the “Percentage of subject” value (KK-Ay mice; 100 mg/kg body weight/day) was 30% and the Blood glucose level (KK-Ay mice; 100 mg/kg body weight/day) was 305 mg/dL. The HbA1c value (KK-Ay mice; 100 mg/kg body weight/day, listed as adenosine N1-oxide, 100 mg/kg/day) was 5.40%, the “production level of IL-5 of spleen cells stimulated with the anti-CD3 antibody” value [1] was “tended to decrease” and the “Content of IL-5” value [1] was 157 ng/mL. The “production level of IFN-γ of spleen cells stimulated with the anti-CD3 antibody” value [2] was “significantly lower”, the “Content of IFN-γ” value [2] was 8.75* pg/mL and the IC50 [3] was 1.4 µM. The “inhibitory action on the production of IL-12 (in words)” value [3, 5] was “showed an inhibitory action”, the IC50 [4] was 1.2 µM and the “inhibitory action on the production of PGE2 (in words)” value [4, 5] was “showed an inhibitory action”. For the same compound, the Proliferation (NHEK cells; 1 μM) was 5540 Fluorescent intensity, the Proliferation (NHEK cells; 5 μM) was 5607 Fluorescent intensity and the Proliferation (NHEK cells; 10 μM) was 5682 Fluorescent intensity.

With `OC[C@H]1O[C@@H](n2cnc3c(O)ncnc32)[C@H](O)[C@@H]1O` [IN, inosine] the HbA1c value (KK-Ay mice; 94 mg/kg body weight/day) was 6.55%, the “Percentage of subject” value (KK-Ay mice; 94 mg/kg body weight/day) was 80% and the Blood glucose level (KK-Ay mice; 94 mg/kg body weight/day) was 340 mg/dL. The “production level of IL-5 of spleen cells stimulated with the anti-CD3 antibody” value [1] was “showed no difference”, the “Content of IL-5” value [1] was 209 ng/mL and the “production level of IFN-γ of spleen cells stimulated with the anti-CD3 antibody” value [2] was “showed no difference”. For the same compound, the “Content of IFN-γ” value [2] was 13.2 pg/mL, the IC50 [3] was greater than 200 µM and the IC50 [4] was greater than 200 µM. It also gave a Proliferation (NHEK cells; 1 μM) of 5643 Fluorescent intensity, a Proliferation (NHEK cells; 5 μM) of 5611 Fluorescent intensity and a Proliferation (NHEK cells; 10 μM) of 5633 Fluorescent intensity.
